System: Leishmania major
Assay: Antileishmanial activity against promastigotes of Leishmania major after 72 hrs by Neubauer counting chamber-based microscopic analysis
Type: functional, organism-based

Row | IC50 [µM] | SMILES
1 | 60 | COc1ccccc1C(=O)N/N=C/c1ccccn1
2 | 75.9 | COc1ccccc1C(=O)N/N=C/c1ccncc1
3 | 15.7 | COC(=O)c1ccc(/C=N/NC(=O)c2ccccc2OC)cc1
4 | 77.4 | COc1ccccc1C(=O)N/N=C/c1ccc(Br)c(F)c1
5 | 31.5 | COc1ccccc1C(=O)N/N=C/c1cc(O)c(O)c(O)c1
6 | 3.29 | COc1ccccc1C(=O)N/N=C/c1ccc(O)c(O)c1
7 | 7.64 | COc1ccc(/C=N/NC(=O)c2ccccc2OC)cc1Br
8 | 13.2 | COc1ccc(/C=N/NC(=O)c2ccccc2OC)cc1OC
9 | 40.1 | COc1ccc(/C=N/NC(=O)c2ccccc2OC)cc1
10 | 1.95 | COc1ccccc1C(=O)N/N=C/c1cccnc1
11 | 2.49 | COc1ccccc1C(=O)N/N=C/c1cccs1
12 | 31.6 | COc1ccccc1C(=O)N/N=C/c1ccc([N+](=O)[O-])cc1
13 | 68.5 | COc1ccccc1C(=O)N/N=C/c1ccc(Cl)cc1
14 | 68 | COc1ccccc1C(=O)N/N=C/c1cccc(O)c1O
15 | 34.9 | COc1ccccc1C(=O)N/N=C/c1cc(O)ccc1O
16 | 88.6 | COc1ccccc1C(=O)N/N=C/c1ccc(O)cc1O
17 | 57.4 | COc1ccccc1C(=O)N/N=C/c1ccc(O)cc1
18 | 13.2 | COc1ccc(/C=N/NC(=O)c2ccccc2OC)c(O)c1
19 | 45.7 | COc1ccc(/C=N/NC(=O)c2ccccc2OC)cc1O
20 | 63.4 | COc1ccccc1C(=O)N/N=C/c1ccc(OC)c(O)c1I
21 | 53.1 | COc1cc(/C=N/NC(=O)c2ccccc2OC)cc(OC)c1
22 | 5.09 | N=C(N)c1ccc(OCCCCCOc2ccc(C(=N)N)cc2)cc1 [PENTAMIDINE]

Source: ChEMBL document CHEMBL2380304, “Synthesis of 2-methoxybenzoylhydrazone and evaluation of their antileishmanial activity” (Bioorg Med Chem Lett, 2013)
